Assay results taken from patent US8492420B2, “Use of purine derivatives for the production of medicaments for the treatment of mucoviscidosis and diseases related to protein addressing errors in cells” (Centre National de la Recherche Scientifique-CNRS, priority 2004, dated 2013).
Entries after “also recorded” stand apart in the source; their conditions may differ. Like-named read-outs stand apart in the source and are kept apart here.

Tests used:
delF508-CFTR [1] = molecular target: T1, delF508-CFTR (Homo sapiens, UniProt P13569, DEL508-508); assay: Iodide efflux test of delF508 addressing in CF15 cells
T1 sequence (P13569 with tags, fused parts or gaps DEL508-508): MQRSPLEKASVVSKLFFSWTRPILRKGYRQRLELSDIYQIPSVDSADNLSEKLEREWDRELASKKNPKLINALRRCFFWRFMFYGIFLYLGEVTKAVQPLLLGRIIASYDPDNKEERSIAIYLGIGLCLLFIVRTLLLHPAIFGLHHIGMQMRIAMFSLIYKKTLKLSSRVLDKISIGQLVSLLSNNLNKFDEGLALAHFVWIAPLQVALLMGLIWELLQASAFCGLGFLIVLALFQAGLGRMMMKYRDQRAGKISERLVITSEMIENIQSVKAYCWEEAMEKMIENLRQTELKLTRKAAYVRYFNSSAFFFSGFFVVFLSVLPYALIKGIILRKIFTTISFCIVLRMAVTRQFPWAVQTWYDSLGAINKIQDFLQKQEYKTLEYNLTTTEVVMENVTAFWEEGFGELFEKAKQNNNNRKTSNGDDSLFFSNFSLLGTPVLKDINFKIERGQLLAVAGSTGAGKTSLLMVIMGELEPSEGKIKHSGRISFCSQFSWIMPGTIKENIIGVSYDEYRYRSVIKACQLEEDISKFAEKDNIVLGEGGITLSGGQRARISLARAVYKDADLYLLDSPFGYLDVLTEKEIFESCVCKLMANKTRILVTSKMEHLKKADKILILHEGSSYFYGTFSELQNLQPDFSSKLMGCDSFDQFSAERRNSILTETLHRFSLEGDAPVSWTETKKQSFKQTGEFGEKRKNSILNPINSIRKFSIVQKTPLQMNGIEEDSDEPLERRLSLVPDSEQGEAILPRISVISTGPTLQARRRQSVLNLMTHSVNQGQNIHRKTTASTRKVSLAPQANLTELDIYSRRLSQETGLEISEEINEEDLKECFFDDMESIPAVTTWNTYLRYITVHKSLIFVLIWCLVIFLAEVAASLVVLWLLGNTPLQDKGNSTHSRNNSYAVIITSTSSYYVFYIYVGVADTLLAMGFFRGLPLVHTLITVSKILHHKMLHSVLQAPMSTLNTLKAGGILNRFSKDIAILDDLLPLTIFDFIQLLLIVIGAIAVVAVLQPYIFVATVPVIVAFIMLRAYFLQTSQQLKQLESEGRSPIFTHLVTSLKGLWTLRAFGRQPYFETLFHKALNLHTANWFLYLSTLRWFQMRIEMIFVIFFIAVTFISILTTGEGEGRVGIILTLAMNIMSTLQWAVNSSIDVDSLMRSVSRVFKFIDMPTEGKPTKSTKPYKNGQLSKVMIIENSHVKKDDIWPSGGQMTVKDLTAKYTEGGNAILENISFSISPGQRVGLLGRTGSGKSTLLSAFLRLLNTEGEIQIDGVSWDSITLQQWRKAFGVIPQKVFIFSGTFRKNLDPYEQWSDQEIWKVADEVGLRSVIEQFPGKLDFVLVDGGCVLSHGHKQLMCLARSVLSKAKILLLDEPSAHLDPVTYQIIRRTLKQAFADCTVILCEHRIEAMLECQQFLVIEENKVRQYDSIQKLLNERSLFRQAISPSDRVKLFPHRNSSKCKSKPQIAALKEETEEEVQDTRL
Procedure: These cells will therefore overexpress the CFTR protein. • Culture medium: MEM alpha medium (GIBCO)+7% foetal calf serum+0.5% penicilline/streptomycin+100 μM methotrexate (amethopterine, Sigma). • CF15 cells: CF15 cells are human nasal epithelial cells expressing the ΔF508-CFTR gene. • Culture medium: DMEM+HAM F12 medium+10% FCS+0.6% penicilline/streptomycin+growth factors (5 μg/ml insulin, 5 μg/ml transferrin, 5.5 μM epinephrin, 0.18 mM adenine, 10 ng/ml EGF, 2 nM T3, 1.1 μM hydrocortisone). • Calu-3 cells: Calu-3 cells are human lung epithelial cells expressing the wild-type CFTR gene. • Culture medium: DMEM/F12 medium with glutamax+7% foetal calf serum+1% penicillin/streptomycin.
Measurements of chloride ion transport in the cells were performed using the radioactive iodide efflux technique (Becq and al., 1999; Dormer and al., 2001). The ^125I tracer is incorporated into the intracellular milieu. The quantity of radiotracer coming out of the cell is then measured after adding various pharmacological agents. Iodide is used as a tracer of chloride ion transport. ^125I has the advantage of being short-lived compared to other markers such as ^35CI (respective half-lives: 30 days and 300,000 years).
The cells are incubated in an appropriate medium in 24-well plates. The cells are rinsed twice with efflux medium (136.6 mM NaCl, 5.4 mM KCl, 0.3 mM KH2PO4, 0.3 mM NaH2PO4, 4.2 mM NaHCO3, 1.3 mM CaCl2, 0.5 mM MgCl2, 0.4 mM MgSO4, 10 mM HEPES, 5.6 mM D-glucose) in order to eliminate dead cells, which release radioactivity in an anarchic fashion. The cells are then incubated with a 500-μl load (1 μCi/ml ^125INa) for 30 min for CHO-WT or 1 hr for CF15 and Calu-3 cells. The iodide equilibrates on either side of the cell membrane. The following steps are performed using a MultiPROBE probe (Packard): the loading medium is rinsed with efflux medium in order to eliminate extracellular radioactivity. The supernatant is collected every minute into haemolysis tubes and the medium is replaced by an equivalent volume of medium (500 μl). No drug is added to the samples taken in the first three minutes in order to obtain a stable baseline characterising the passive exit of I ions. The 7 samples that follow are obtained in the presence of the molecule to be tested. At the end of the experiment, the cells are lysed by adding 500 μl of 0.1 N NaOH/0.1% SDS (30 min), which allows determining the level of radioactivity remaining inside the cell. The radioactivity present in the haemolysis tubes is measured as counts per minute (cpm) using a Cobra II gamma counter (Packard). The results (cpm) are expressed as velocity of radioactive iodide efflux (R) according to the formula: R (min^−1)=[In(^125I t1)−In(^125I t2)]/(t1−t2) where ^125I t1=at time t1 and ^125I t2=at time t2. This iodide flux is represented by a graph. In order to quantify the iodide efflux due to administration of the tested molecule, the relative flux is calculated as follows in order to ignore the basal flux: Relative velocity (min^−1)=Rpeak−Rbasal. […] The results are presented in the form of a mean +/−SEM. Student's statistical test is used to compare the effect of the various drugs with the controls (the corresponding P<0.01 values are considered to be statistically significant).
For each experiment, the addition of a cocktail (10 μM Forskoline+30 μM Genisteine) allows activation of the CFTR when the latter is localised in the membrane. This allows an iodide efflux to be observed if delF508 addressing has been restored.

CHO-WT cells = assay: MTT cytotoxicity test; assay type: cell-based, Chinese Hamster; conditions: 2 hrs incubation, different concentrations
Procedure: The MTT cytotoxicity test is a […] test based on the capacity of mitochondrial dehydrogenases to metabolise MTT (a yellow tetrazolium salt) into formazan (purple). The absorbance is proportional to the concentration of converted dye and can then be measured by spectrophotometry. The cells are incubated in 96-well microplates in the presence of the agent to be tested for 2 hours. Three controls are performed: 100% live cells (cells without any agent); 0% live cells (cells left under normal atmosphere); blank (medium without cells). The cells are rinsed with RPMI medium without phenol red in order for the colour of the medium not to interfere with absorbance measurements. The cells are then incubated for 4 hours with 100 μl RPMI solution supplemented with MTT (0.5 mg/ml). The medium is eliminated and 100 μl DMSO is added to dissolve the converted dye (formazan). The absorbance is measured by spectrophotometry at 570 nm (purple); 630 nm (background noise). In order to ignore the background noise, the following calculation is performed: DOreelle=DO570nm−DO630nm.
In order to test the cytotoxicity of roscovitine, CHO-WT cells were incubated for 2 hrs with different concentrations of inhibitors before being tested for viability with MTT.

wild-type CFTR [2] = molecular target: T2, wild-type CFTR (Homo sapiens, UniProt P13569); assay: Iodide efflux test of CFTR activation in Calu-3 cells; assay type: cell-based; conditions: n=8, controls forskoline 5 μM and MPB-91 250 μM
T2 sequence (P13569 whole entry): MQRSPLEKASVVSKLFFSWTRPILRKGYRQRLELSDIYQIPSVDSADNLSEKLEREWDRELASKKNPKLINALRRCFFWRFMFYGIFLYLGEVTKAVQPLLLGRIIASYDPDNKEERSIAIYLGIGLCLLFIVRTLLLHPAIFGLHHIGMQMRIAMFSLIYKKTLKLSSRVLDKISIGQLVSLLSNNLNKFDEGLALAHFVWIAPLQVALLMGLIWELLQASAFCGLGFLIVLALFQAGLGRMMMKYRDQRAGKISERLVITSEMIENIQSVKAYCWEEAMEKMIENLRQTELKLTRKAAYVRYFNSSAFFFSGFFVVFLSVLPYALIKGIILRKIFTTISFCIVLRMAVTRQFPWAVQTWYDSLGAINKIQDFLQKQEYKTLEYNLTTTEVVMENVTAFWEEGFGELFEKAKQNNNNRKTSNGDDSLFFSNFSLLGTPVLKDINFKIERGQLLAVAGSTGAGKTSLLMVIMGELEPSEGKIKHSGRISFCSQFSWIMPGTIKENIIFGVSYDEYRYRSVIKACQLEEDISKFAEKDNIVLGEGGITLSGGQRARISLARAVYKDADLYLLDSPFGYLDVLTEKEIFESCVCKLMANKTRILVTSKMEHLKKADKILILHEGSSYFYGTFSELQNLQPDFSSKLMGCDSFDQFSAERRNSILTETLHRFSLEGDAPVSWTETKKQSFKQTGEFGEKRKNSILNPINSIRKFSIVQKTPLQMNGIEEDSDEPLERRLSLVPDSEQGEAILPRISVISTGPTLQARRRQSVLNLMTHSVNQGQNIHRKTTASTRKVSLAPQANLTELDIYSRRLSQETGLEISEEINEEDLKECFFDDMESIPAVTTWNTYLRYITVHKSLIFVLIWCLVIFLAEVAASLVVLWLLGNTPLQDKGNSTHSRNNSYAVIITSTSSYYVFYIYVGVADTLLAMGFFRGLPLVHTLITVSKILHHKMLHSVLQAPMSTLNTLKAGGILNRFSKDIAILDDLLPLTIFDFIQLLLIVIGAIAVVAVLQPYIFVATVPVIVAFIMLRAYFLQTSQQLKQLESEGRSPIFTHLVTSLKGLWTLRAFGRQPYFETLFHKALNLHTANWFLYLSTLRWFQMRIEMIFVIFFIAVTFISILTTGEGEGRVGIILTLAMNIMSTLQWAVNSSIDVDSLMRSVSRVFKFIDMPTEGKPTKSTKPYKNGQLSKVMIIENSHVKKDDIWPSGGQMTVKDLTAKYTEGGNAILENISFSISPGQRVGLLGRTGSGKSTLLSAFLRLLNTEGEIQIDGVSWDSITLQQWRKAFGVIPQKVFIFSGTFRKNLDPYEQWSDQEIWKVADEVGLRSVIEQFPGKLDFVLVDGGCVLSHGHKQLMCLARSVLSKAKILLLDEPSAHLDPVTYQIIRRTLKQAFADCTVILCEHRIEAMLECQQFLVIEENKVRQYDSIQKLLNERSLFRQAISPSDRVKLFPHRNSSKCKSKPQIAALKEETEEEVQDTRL
Procedure: The controls used were forskoline (5 μM, n=8) and MPB-91 (250 μM, n=8).

delF508-CFTR [3] = molecular target: T1, delF508-CFTR; assay: Immunoprecipitation and Western-Blot of delF508-CFTR in CF15 cells; assay type: cell-based; design: CF15 human lung epithelial cells homozygous for the delF508 deletion; endogenous in cells; host or cells: CF15 human epithelial cells, homozygous delF508; conditions: 2 hrs, 100 μM
Procedure: The study of delF508-CFTR protein addressing is performed in the laboratory by using a combination of pharmacological, cellular imagery, biochemical and electrophysiological tests on CF15 human lung epithelial cells homozygous for the delF508 deletion. Results of immunoprecipitation and Western-Blot analyses of non mutated CFTR from wild-type CHO cells and delF508 cells treated for 2 hrs with 100 μM of the tested compound (FIG. 3C) or untreated cells (control). CF15 cells treated for 24 hrs at 27° C. (FIG. 3B) or for 2 hrs with 10 μM thapsigargin (TG) were used as a positive control.

delF508-CFTR [4] = molecular target: T1, delF508-CFTR; assay: Competition between roscovitine and ER chaperone machinery (iodide efflux); assay type: cell-based; design: CF15 human lung epithelial cells homozygous for the delF508 deletion; endogenous in cells; host or cells: CF15 human epithelial cells, homozygous delF508
From the text: The competition between CFTR-T1 and the ER chaperone machinery is illustrated by FIGS. 6A and 6B.
The table below summarises the roscovitine and ER chaperone machinery competition experiments performed by the iodide efflux technique. • inhibition, ** P<0.01, * P<0.1, ns P>0.1 (Student's t-test)

delF508-CFTR [5] = molecular target: T1, delF508-CFTR; assay: Immunolocalisation of delF508-CFTR in CF15 cells (confocal); assay type: cell-based; design: CF15 human lung epithelial cells homozygous for the delF508 deletion; endogenous in cells; host or cells: CF15 human epithelial cells, homozygous delF508; conditions: 2 hrs treatment, 100 μM
Procedure: Immunolabelling allows visualising the cellular localisation of the CFTR protein by means of an anti-CFTR primary antibody (Ab), and a secondary Cy3-labelled fluorescent antibody directed against the primary antibody. The cells are first seeded on cover slips in an appropriate culture medium. The cells are then washed 3 times with TBS (157 mM NaCl, […] Tris base, pH 7.4) for 5 min. each time and then fixed by adding 3% TBS-paraformaldehyde for 20 min. After 3 washes with TBS (5 min. each), the cells are incubated with 0.1% TBS-triton (10 min) to make holes in the cell membrane, and then washed 3 times with TBS before being exposed to 0.5% TBS-BSA-0.05% saponin for 1 hr. The cells are then incubated with the primary anti-CFTR C terminal antibody (2 μg/ml) for 1 hr. The cells are washed 3 times (5 min. each) with TBS-BSA-saponin before incubating with the GAM-cy3 secondary antibody (1/400) for 1 hr. After 2 TBS washes (5 min. each), the nuclei are labelled by incubating with Topro3 (1/1,000) for 5 min. Finally, the cover slips can be mounted on a glass slide after 3 final TBS washes (5 min. each). The slides are analysed with a confocal microscope (Bio-Rad) using laser excitation at appropriate wave-lengths. In order to differentiate Cy3 from Topro3 labelling, the colour of the Topor3 fluorescence has been changed to blue (colour of the nuclei). […]

wild-type CFTR [6] = molecular target: T2, wild-type CFTR; assay: Iodide efflux test of CFTR addressing in Calu-3 cells; assay type: cell-based; conditions: Calu-3 cells treated 2 hrs, 100 μM
[7] = read-out: Ec50 (concentration giving 50% of maximal efficiency) for delF508 addressing, CF15 cells, 2 hrs at 37° C., stimulation with 10 μM Forskoline+30 μM Genisteine, n=4

SMILES | EC50 (delF508-CFTR [1]; [7]) [µM] | EC50 (delF508-CFTR [1]) [µM] | Function of readdressed delF508-CFTR (iodide efflux and patch-clamp on whole cells) (delF508-CFTR [1]) | Treatment time for maximal correction of delF508-CFTR chloride ion channel function (delF508-CFTR [1]; CF15 cells, 100 μM) [h] | Restoration of delF508 addressing and ion transport function (delF508-CFTR [1]; CF15 cells, 2 hrs at 37° C., two forms (R and S)) | Cell viability (MTT) (CHO-WT cells) | Activation of wild-type CFTR or other anionic transporter (wild-type CFTR [2]) | Maturation of delF508-CFTR (band C in Western-Blot) (delF508-CFTR [3]) | Maturation of delF508-CFTR (band C in Western-Blot) (delF508-CFTR [3]; listed as CFTR-T1) | Competition with inhibitors of the chaperone and degradation machinery (delF508-CFTR [4]) | Effect of Brefeldine A (BFA) on the compound's action (delF508-CFTR [4]; BFA, inhibitor of ERGIC vesicular traffic) | Effect of MG132 on the compound's action (delF508-CFTR [4]; MG132, proteasome inhibitor) | Localisation of delF508-CFTR protein (delF508-CFTR [5]) | CFTR activity after treatment (wild-type CFTR addressing) (wild-type CFTR [6])
CC[C@H](CO)Nc1nc(NCc2ccccc2)c2ncn(C(C)C)c2n1 [R-Roscovitine, 2-(R)-(1-ethyl-2-hydroxyethylamino)-6-benzylamino-9-isopropylpurine] | 34 ± 1.9 | – | – | – | – | – | – | – | – | – | – | – | – | –
CC[C@@H](CO)Nc1nc(NCc2ccccc2)c2ncn(C(C)C)c2n1 [S-Roscovitine, 2-(S)(1-ethyl-2-hydroxyethylamino)-6-benzylamino-9-isopropylpurine] | 32 ± 1.4 | – | – | – | – | – | – | – | – | – | – | – | – | –
CC[C@H](CO)Nc1nc(NCc2ccccc2)c2ncn(C(C)C)c2n1 [roscovitine] | – | 56 | functional | 2 | restores addressing of the delF508 protein | viable at all concentrations | not found to be an activator | appearance of the mature CFTR band | maturation of delF508-CFTR (band C appears in the Western-Blot) | competed with inhibitors of calnexin/delF508-CFTR binding as well as inhibitors of the degradation pathway | inhibition | no modulation is observed | localised in the plasma membrane compartment; also recorded: correct delF508-CFTR relocation to the plasma membrane; also recorded: allowed relocation of the delF508-CFTR protein to the membrane | not significantly different from the controls
